Results published in US8530490B2, “Uracil compound or salt thereof having human deoxyuridine triphosphatase inhibitory activity” (Taiho Pharmaceutical Co., Ltd., priority 2008, dated 2013).

Molecular target: human dUTPase (Homo sapiens (Human), UniProt P33316)
Assay: Human dUTPase inhibitory effect: production of [5-3H]dUMP from [5-3H]dUTP, measured by HPLC with flow scintillation
Format: biochemical
Conditions: [5-3H]dUMP production from [5-3H]dUTP, 37° C., 15 minutes
Protocol: The inhibitory activity of the compound of the present invention against human dUTPase was determined by measuring the production of [5-^3H]deoxyuridine monophosphate (hereinafter, referred to as [5-^3H]dUMP) from [5-^3H]deoxyuridine triphosphate (hereinafter, referred to as [5-^3H]dUTP) according to a method shown below.
Specifically, 0.2 mL in total of a solution containing 0.02 mL of 1 μM dUTP (including 588 Bq/mL [5-3H]dUTP), 0.05 mL of a 0.2 M Tris buffer solution (pH 7.4), 0.05 mL of 16 mM magnesium chloride, 0.02 mL of 20 mM 2-mercaptoethanol, 0.02 mL of a 1% aqueous solution of fetal bovine serum-derived albumin, 0.02 mL of varying concentrations of test compound solutions or pure water as a control, and 0.02 mL of a solution of human dUTPase (expressed using E. coli and purified) was reacted at 37° C. for 15 minutes. Immediately after the reaction, the solution was heated at 100° C. for 1 minute to terminate the reaction, followed by centrifugation at 15000 rpm for 2 minutes. An aliquot (150 μL) of the supernatant thus obtained by centrifugation was analyzed using an Atlantis dC18 column (manufactured by Waters Corp., 4.6×250 mm) and a high-performance liquid chromatograph (manufactured by Shimadzu Corp., Prominence). Elution was performed at a flow rate of 0.8 mL/min for 30 minutes by a concentration gradient from a 4:6 mixed solution of a mobile phase A (10 mM potassium dihydrogen phosphate (pH 6.7), 10 mM tetrabutylammonium, and 0.25% methanol) and a mobile phase B (50 mM potassium dihydrogen phosphate (pH 6.7), 5.6 mM tetrabutylammonium, and 30% methanol) to the mobile phase B. The eluate was mixed with a scintillator (manufactured by PerkinElmer Co., Ltd., Ultima-Flo AP) at a 1:2 ratio, and the radioactivity of the produced [5-^3H]dUMP (RT 10.2 min) was measured using Radiomatic Flow Scintillation Analyzer (manufactured by PerkinElmer Co., Ltd., 525TR).
The inhibitory activity of the test compound was determined according to the formula shown below.

Chain of human dUTPase (P33316 94-252): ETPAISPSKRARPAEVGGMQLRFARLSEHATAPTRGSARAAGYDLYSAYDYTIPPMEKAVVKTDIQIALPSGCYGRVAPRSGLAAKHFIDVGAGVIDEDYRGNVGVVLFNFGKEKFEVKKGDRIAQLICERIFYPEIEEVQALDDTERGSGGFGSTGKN

Row | IC50 [nM] | SMILES
1 | 185000 | O=c1ccn(COCCOC(c2ccccc2)(c2ccccc2)c2ccccc2)c(=O)[nH]1 [Comparative Example 1, reference compound]
2 | 97200 | CN(C(CCn1ccc(=O)[nH]c1=O)C(=O)NO)S(=O)(=O)c1ccc(Oc2ccccc2)cc1 (stereo not shown) [Comparative Example 2, 4-(2,4-Dioxo-3,4-dihydropyrimidin-1(2H)-yl)-N-hydroxy-2-(N-methyl-4-phenoxyphenylsulfonamide)butanamide, reference compound]
3 | 330 | O=c1ccn(COCCCS(=O)(=O)NCc2cccc(OCC3CC3)c2)c(=O)[nH]1 [Example 1, N-(3-(cyclopropylmethoxy)benzyl)-3-((2,4-dioxo-3,4-dihydropyrimidin-1(2H)-yl)methoxy)propane-1-sulfonamide]
4 | 1870 | C[C@@H](NS(=O)(=O)CCCOCn1ccc(=O)[nH]c1=O)c1cccc(OCC(C)(C)O)c1 [Example 2, (R)-3-((2,4-dioxo-3,4-dihydropyrimidin-1(2H)-yl)methoxy)-N-(1-(3-(2-hydroxy-2-methylpropoxy)phenyl)ethyl)propane-1-sulfonamide]
5 | 870 | CC[C@@](O)(CNS(=O)(=O)CCCOCn1ccc(=O)[nH]c1=O)c1ccc(F)c(OC2CCCC2)c1 [Example 3, (S)—N-(2-(3-(cyclopentyloxy)-4-fluorophenyl)-2-hydroxybutyl)-3-((2,4-dioxo-3,4-dihydropyrimidin-1(2H)-yl)methoxy)propane-1-sulfonamide]
6 | 60 | C[C@@H](NS(=O)(=O)CCCOCn1ccc(=O)[nH]c1=O)c1cccc(OC2CCCC2)c1 [Example 5, (R)—N-(1-(3-(cyclopentyloxy)phenyl)ethyl)-3-((2,4-dioxo-3,4-dihydropyrimidin-1(2H)-yl)methoxy)propane-1-sulfonamide]
7 | 460 | C[C@@H](NS(=O)(=O)CCCOCn1ccc(=O)[nH]c1=O)c1cccc(O[C@@H]2CCOC2)c1 [Example 6, 3-((2,4-dioxo-3,4-dihydropyrimidin-1(2H)-yl)methoxy)-N—((R)-1-(3-((R)-tetrahydrofuran-3-yloxy)phenyl)ethyl)propane-1-sulfonamide]
8 | 640 | O=c1ccn(COCCCS(=O)(=O)NCc2ccc(F)c(OCC3CC3)c2)c(=O)[nH]1 [Example 7, N-(3-(cyclopropylmethoxy)-4-fluorobenzyl)-3-((2,4-dioxo-3,4-dihydropyrimidin-1(2H)-yl)methoxy)propane-1-sulfonamide]
9 | 90 | C[C@@H](NS(=O)(=O)CCCOCn1ccc(=O)[nH]c1=O)c1ccc(F)c(OCC2CC2)c1 [Example 8, (R)—N-(1-(3-(cyclopropylmethoxy)-4-fluorophenyl)ethyl)-3-((2,4-dioxo-3,4-dihydropyrimidin-1(2H)-yl)methoxy)propane-1-sulfonamide]
10 | 40 | CC(C)[C@@H](NS(=O)(=O)CCCOCn1ccc(=O)[nH]c1=O)c1ccc(F)c(OCC2CC2)c1 [Example 9, (R)—N-(1-(3-(cyclopropylmethoxy)-4-fluorophenyl)-2-methylpropyl)-3-((2,4-dioxo-3,4-dihydropyrimidin-1(2H)-yl)methoxy)propane-1-sulfonamide]
11 | 160 | O=c1ccn(COCCCS(=O)(=O)NC(c2ccccc2)c2cccc(OCC3CC3)c2)c(=O)[nH]1 (stereo not shown) [Example 10, N-((3-(cyclopropylmethoxy)phenyl)(phenyl)methyl)-3-((2,4-dioxo-3,4-dihydropyrimidin-1(2H)-yl)methoxy)propane-1-sulfonamide]
12 | 2830 | O=c1ccn(COCCCS(=O)(=O)NCc2cccc(SCC3CC3)c2)c(=O)[nH]1 [Example 12, N-(3-(cyclopropylmethylthio)benzyl)-3-((2,4-dioxo-3,4-dihydropyrimidin-1(2H)-yl)methoxy)propane-1-sulfonamide]
13 | 330 | C[C@@H](NS(=O)(=O)CCCOCn1ccc(=O)[nH]c1=O)c1cccc(OC2CC2)c1 [Example 13, (R)—N-(1-(3-cyclopropoxyphenyl)ethyl)-3-((2,4-dioxo-3,4-dihydropyrimidin-1(2H)-yl)methoxy)propane-1-sulfonamide]
14 | 210 | CCC(CC)(NS(=O)(=O)CCCOCn1ccc(=O)[nH]c1=O)c1cccc(OCC2CC2)c1 [Example 14, N-(3-(3-(cyclopropylmethoxy)phenyl)pentan-3-yl)-3-((2,4-dioxo-3,4-dihydropyrimidin-1(2H)-yl)methoxy)propane-1-sulfonamide]
15 | 940 | O=c1ccn(COCCCS(=O)(=O)NC(c2ccccc2)c2cccc(OC(F)(F)C(F)F)c2)c(=O)[nH]1 (stereo not shown) [Example 15, 3-((2,4-dioxo-3,4-dihydropyrimidin-1(2H)-yl)methoxy)-N-(phenyl(3-(1,1,2,2-tetrafluoroethoxy)phenyl)methyl)propane-1-sulfonamide]
16 | 210 | O=c1ccn(COCCCS(=O)(=O)NC(c2cccc(OCC3CC3)c2)c2cccc(OCC3CC3)c2)c(=O)[nH]1 [Example 17, N-(bis(3-(cyclopropylmethoxy)phenyl)methyl)-3-((2,4-dioxo-3,4-dihydropyrimidin-1(2H)-yl)methoxy)propane-1-sulfonamide]
17 | 240 | O=c1ccn(COCCCS(=O)(=O)NC(c2ccc(F)cc2)c2ccc(F)c(OCC3CC3)c2)c(=O)[nH]1 (stereo not shown) [Example 19, N-((3-(cyclopropylmethoxy)-4-fluorophenyl)(4-fluorophenyl)methyl)-3-((2,4-dioxo-3,4-dihydropyrimidin-1(2H)-yl)methoxy)propane-1-sulfonamide]
18 | 190 | CCC(CC)(NS(=O)(=O)CCCOCn1ccc(=O)[nH]c1=O)c1ccc(F)c(OCC2CC2)c1 [Example 20, N-(3-(3-(cyclopropylmethoxy)-4-fluorophenyl)pentan-3-yl)-3-((2,4-dioxo-3,4-dihydropyrimidin-1(2H)-yl)methoxy)propane-1-sulfonamide]
19 | 270 | O=c1ccn(COCCCS(=O)(=O)NCc2cccc(OC3CCCC3)c2)c(=O)[nH]1 [Example 21, N-(3-(cyclopentyloxy)benzyl)-3-((2,4-dioxo-3,4-dihydropyrimidin-1(2H)-yl)methoxy)propane-1-sulfonamide]
20 | 30 | CC[C@@H](NS(=O)(=O)CCCOCn1ccc(=O)[nH]c1=O)c1ccc(F)c(OCC2CC2)c1 [Example 22, (R)—N-(1-(3-(cyclopropylmethoxy)-4-fluorophenyl)propyl)-3-((2,4-dioxo-3,4-dihydropyrimidin-1(2H)-yl)methoxy)propane-1-sulfonamide]
21 | 40 | C[C@@H](NS(=O)(=O)CCCOCn1ccc(=O)[nH]c1=O)c1ccc(F)c(OC2CCCC2)c1 [Example 24, (R)—N-(1-(3-(cyclopentyloxy)-4-fluorophenyl)ethyl)-3-((2,4-dioxo-3,4-dihydropyrimidin-1(2H)-yl)methoxy)propane-1-sulfonamide]
22 | 100 | CC(C)C(NS(=O)(=O)CCCOCn1ccc(=O)[nH]c1=O)c1ccc(F)c(OCC2CC2)c1 (stereo not shown) [Example 25, N-(1-(3-(cyclopropylmethoxy)-4-fluorophenyl)-2-methylpropyl)-3-((2,4-dioxo-3,4-dihydropyrimidin-1(2H)-yl)methoxy)propane-1-sulfonamide]

Row | SMILES | IC50 [nM]
23 | O=c1ccn(COCCCS(=O)(=O)NCc2cccc(OC3CCC3)c2)c(=O)[nH]1 [Example 4, N-(3-cyclobutoxybenzyl)-3-((2,4-dioxo-3,4-dihydropyrimidin-1(2H)-yl)methoxy)propane-1-sulfonamide] | 610
24 | CC(NS(=O)(=O)CCCOCn1ccc(=O)[nH]c1=O)c1cccc(OCC2CC2)c1 (stereo not shown) [Example 11, N-(1-(3-(cyclopropylmethoxy)phenyl)ethyl)-3-((2,4-dioxo-3,4-dihydropyrimidin-1(2H)-yl)methoxy)propane-1-sulfonamide] | 490
25 | CC(C)COc1cccc(C(NS(=O)(=O)CCCOCn2ccc(=O)[nH]c2=O)c2ccccc2)c1 (stereo not shown) [Example 16, 3-((2,4-dioxo-3,4-dihydropyrimidin-1(2H)-yl)methoxy)-N-((3-isobutoxyphenyl)(phenyl)methyl)propane-1-sulfonamide] | 600
26 | CC[C@H](C)COc1cccc(C(NS(=O)(=O)CCCOCn2ccc(=O)[nH]c2=O)c2ccccc2)c1 (stereo partly drawn) [Example 18, 3-((2,4-dioxo-3,4-dihydropyrimidin-1(2H)-yl)methoxy)-N-((3-((S)-2-methylbutoxy)phenyl) (phenyl)methyl)propane-1-sulfonamide] | 1650
27 | C[C@@H](NS(=O)(=O)CCCOCn1ccc(=O)[nH]c1=O)c1cccc(OCC2CC2)c1 [Example 23, (R)—N-(1-(3-(cyclopropylmethoxy)phenyl)ethyl)-3-((2,4-dioxo-3,4-dihydropyrimidin-1(2H)-yl)methoxy)propane-1-sulfonamide] | 50
28 | CC(C)(NS(=O)(=O)CCCOCn1ccc(=O)[nH]c1=O)c1cccc(OCC2CC2)c1 [Example 26, N-(2-(3-(cyclopropylmethoxy)phenyl)propan-2-yl)-3-((2,4-dioxo-3,4-dihydropyrimidin-1(2H)-yl)methoxy)propane-1-sulfonamide] | 520
